Broadly, the koff is the first-order rate constant of dissociation. A lower koff goes with slow dissociation. For orientation: kon means the second-order rate constant of association.

Read-outs that look alike come from different tables or passages of the source. No end group written: not given here.

Assay [1] deals with T1, K48-Ub2 (Homo sapiens, UniProt P0CG47).
T1 construct: solid phase peptide synthesis of Ub monomers (modified as required); made in house; host or cells: total chemical synthesis (SPPS, isopeptide ligation, desulfurization)
Put plainly: SPR binding of cyclic peptides to K48-linked di-ubiquitin.
Description: The interactions between cyclic peptides: U2i, U2ii, U4i, U4ix and Ub1, ^K48Ub2 and ^K48Ub4, were determined using BIACORE T100 instrument (GE healthcare) equipped with a biotin CAPture kit Series S chip. The buffer in all experiments contained 50 mM HEPES, pH 7.3, 150 mM NaCl, 0.05% Tween20, 2 mM DTT with 0.2% DMSO. Biotinylated Ub1, ^K48Ub2 and ^K48Ub4 were loaded to approximately equal molar amounts on the SPR chip, and various concentrations of cyclic peptides were flowed over at 100 μL/sec for 120 sec, before initiation of dissociation by flowing buffer over at 100 μL/sec for further 700 sec. Traces were fit to the simplest, two-state model for binding. Association was fit to a single exponential assuming pseudo-first order conditions, whereas the dissociation trace was fit to single exponential plus a drift term.
Each peptide was flowed over Ub1, ^K48Ub2 and ^K48Ub2 immobilized on SPR chips.

The subject of assay [2] is USP2. Description: In vitro deubiquitination assay, USP2 with K48-linked di-Ub. It is filed as biochemical. The following applies: di-Ub as the substrate. Here is the method:
(§1) In Vitro Deubiquitination Assay
(§2) In vitro deubiquitination reactions were performed in a Tris buffer (50 mM TRIS, 1 mM TCEP, pH 7.7), containing 2 μM ^K48Ub2/4, then the specific DUB (50 mM Tris, 0.5 mM EDTA, 1 mM TCEP and 0.5 mg/ml ovalbumin, pH 7.5) was added. The reaction mixtures were incubated at 37° C. and at the indicated time points the reactions were stopped by taking aliquots and mixed them with 3× sample buffer and boiling. The same amounts were loaded on 14% SDS-PAGE, electro-blotted to nitrocellulose membrane and probed with an anti-Ub antibody. Bands were quantified with Image Quant LAS 4000 (GE Healthcare).
(§3) The inventors further chose to examine the effect of these cyclic peptides on two DUBs: OTUB1, a K48-linkage chain specific DUB, and USP2, which cleaves most Ub chains without specificity, using K48-linked di- and tetra-Ub chains as substrates.

A further assay addresses T2, ^K48Ub4 (Homo sapiens, UniProt P0CG47).
T2 construct: solid phase peptide synthesis of Ub monomers (modified as required); made in house
Description: SPR binding of cyclic peptides to K48-linked tetra-ubiquitin. The method, then: Surface Plasmon Resonance (SPR)
The interactions between cyclic peptides: U2i, U2ii, U4i, U4ix and Ub1, ^K48Ub2 and ^K48Ub4, were determined using BIACORE T100 instrument (GE healthcare) equipped with a biotin CAPture kit Series S chip. The buffer in all experiments contained 50 mM HEPES, pH 7.3, 150 mM NaCl, 0.05% Tween20, 2 mM DTT with 0.2% DMSO. Biotinylated Ub1, ^K48Ub2 and ^K48Ub4 were loaded to approximately equal molar amounts on the SPR chip, and various concentrations of cyclic peptides were flowed over at […] for 120 sec, before initiation of dissociation by flowing buffer over at […] for further 700 sec. Traces were fit to the simplest, two-state model for binding. Association was fit to a single exponential assuming pseudo-first order conditions, whereas the dissociation trace was fit to single exponential plus a drift term. Finally, due to the poor quality of the traces for U4ix binding ^K48Ub2, the amplitude of the association kinetic trace at different concentrations of peptide was fit to estimate the lower bound for KD.
Each peptide was flowed over Ub1, ^K48Ub2 and […] immobilized on SPR chips. There was no detectable binding to Ub1 for any of the peptides, as expected, as Ub1 binding was explicitly selected against during the RaPID protocol. […] However, Ub2i and Ub2ii also strongly bound ^K48Ub4, with a low apparent KD and an increased SPR response (FIG. 1E). This was consistent with a higher stoichiometry of binding to the tetramer, which could be explained by additional binding sites in ^K48Ub4. Indeed, the ^K48Ub2 structure can be superimposed twice on the ^K48Ub4 crystal structure (FIG. 10). […] However, similar to Ub2i and Ub2ii, Ub4i also bound ^K48Ub2. This was perhaps unsurprising, given the high sequence identity between Ub4i and Ub2i.

In another assay the target is T3, ^K63Ub2 (Homo sapiens, UniProt P0CG47, K63R).
T3 construct: Recombinant Ub monomers carrying chain-terminating mutations; made in house
Put plainly: NMR titration with K63-linked di-Ub. The following applies: up to 2:1 peptide:Ub2. It is filed as binding. The method, then: (§4) All NMR studies were performed on Bruker Avance III 600 MHz spectrometer equipped with TCI cryoprobe. The sample temperature was set to 23° C. for Ub2ii binding studies or 25° C. for Ub4ix studies, unless indicated otherwise. The protein (monomeric Ub or Ub chains) samples were prepared in 20 mM sodium phosphate buffer (pH 6.8) containing 5-10% D20 and 0.02% (w/v) NaN3. The Ub2ii peptide was dissolved in deuterated DMSO (up to 20 mM concentration) and titrated in μL amounts into 50 μM ^15N-Ub^WT or K63-linked Ub2 (^15N-enriched in the distal domain) to two molar equivalents. Ub2ii was titrated into 100 μM solutions of proximally- or distally-^15N-enriched ^K48Ub2 to 1:1 or 1:1.3 molar ratio, respectively, as well as into 200 μM ^K48Ub2 with the ^13C/^15N-enriched proximal or distal Ub unit. Ub4ix titration into K48-linked Ub2, Ub3, and Ub4 was performed in a similar manner, with the starting Ub chain concentration of 200 μM; the chain/peptide molar ratio at the endpoint varied from 1:1 (Ub2) to 1:1.5 or 1:2 for Ub3 and Ub4. Several of these titrations were performed twice and at differing protein concentrations, to verify the reproducibility of the observed spectral changes. Separately, a similar amount of DMSO was added to ^15N-labeled Ub to verify that the presence of DMSO in the peptide-containing stock solution had negligible effect on Ub spectra. […]

The target in a further assay is T4, monomeric Ub (Homo sapiens, UniProt P0CG47).
T4 construct: made in house
Put plainly: NMR titration with monomeric Ub. The following applies: compared with ^K48Ub2. It is filed as binding. The method, then: as §4

For another assay, the system named is 26S proteasome. Description: In vitro proteasome degradation assay of HA-α-globin-K48-linked tetra-Ub. Particulars: 5.3 μM peptide. It is filed as biochemical.
Assay [3] relates to K48-linked Ub elongation on Ring1B. Description: In vitro K48-linked Ub elongation on Ring1B (western blot). The assay is classed as biochemical. For orientation: Immunoblotting shows a protein as a band on a membrane.
Assay [4] deals with USP2. Description: In vitro deubiquitination assay, USP2 with K48-linked tetra-Ub. The following applies: tetra-Ub chain, after removal of the distal Ub (tri-Ub). The assay is classed as biochemical. The method, then:
as §1, §2, §3

The target of assay [5] is T1, K48-Ub2. Description: Deep mutational scanning of J08_mClBz (relative enrichment, MiSeq). The assay is classed as binding. Particulars: single mutation of J08_mClBz. The text has this: FIG. 36 is a bar graph showing relative enrichment (log2 E) versus single mutations based on deep scanning (Step 2b in FIG. 34B). E=Positive fraction %/Input fraction % according MiSeq sequencing results. Bars of positive values and negative values indicate potentially favorable and unfavorable mutations, respectively.
Mutation of Leu6 seemed highly flexible which allowed its replacement by either nonpolar or polar residues. […] Based on this information, the inventors prepared nine peptides containing F9Y mutations.

[6] abbreviates: SPR, target ^K48Ub2, read-out: KD.
[7] abbreviates: range stated in the description, 'as exemplified', read-out: dimeric Ub binding affinity KD.
Where [8] appears, read: SPR, target ^K48Ub4, read-out: KD.
[9] abbreviates: range stated in the description, 'as exemplified', read-out: tetrameric Ub binding affinity KD.

As for `CC(C)C[C@@H]1NC(=O)[C@H](CC(N)=O)NC(=O)[C@H](CC(=O)O)NC(=O)[C@H](Cc2ccccc2)NC(=O)[C@H](Cc2c[nH]c3ccccc23)NC(=O)CNC(=O)[C@@H](Cc2c[nH]c3ccccc23)NC(=O)CSC[C@@H](C(=O)NCC(N)=O)NC(=O)[C@H](Cc2c[nH]cn2)NC(=O)[C@H]([C@@H](C)O)NC(=O)[C@H](C(C)C)NC(=O)[C@H](Cc2ccc(O)cc2)NC(=O)[C@H](Cc2c[nH]c3ccccc23)NC(=O)[C@H](Cc2ccc(O)cc2)NC1=O` [Ub2i], the koff at K48-Ub2 [1] (SPR, target ^K48Ub2) came to 0.024 s⁻¹; on ^K48Ub4 (SPR, target ^K48Ub4), 0.011 s⁻¹. Further, the kon on K48-Ub2 [1] (SPR, target ^K48Ub2) was found to be 593000 M⁻¹ s⁻¹; on ^K48Ub4 (SPR, target ^K48Ub4) it was 779000 M⁻¹ s⁻¹. Also, the Kd is 40 ± 12 nM on K48-Ub2 [1] (setting [6]), 20 to 40 nM on K48-Ub2 [1] (setting [7]), 14 nM at ^K48Ub4 (setting [8]) and 15 to 25 nM at ^K48Ub4 (setting [9]). Further, in the assay with USP2 [2], the “inhibition of USP2” value is about 40%.

`CC(C)C[C@@H]1NC(=O)[C@H](Cc2ccc(O)cc2)NC(=O)[C@H](Cc2ccc(O)cc2)NC(=O)[C@H](Cc2ccc(O)cc2)NC(=O)[C@H](CCC(=O)O)NC(=O)[C@H](CCCNC(=N)N)NC(=O)[C@H](CC(=O)O)NC(=O)[C@H](Cc2ccc(O)cc2)NC(=O)[C@H](Cc2c[nH]c3ccccc23)NC(=O)[C@@H](Cc2c[nH]c3ccccc23)NC(=O)CSC[C@@H](C(=O)NCC(N)=O)NC(=O)CNC(=O)[C@H](Cc2ccc(O)cc2)NC(=O)CNC1=O` [Ub2ii]: the koff amounted to 0.016 s⁻¹ at K48-Ub2 [1] (SPR, target ^K48Ub2) and 0.012 s⁻¹ on ^K48Ub4 (SPR, target ^K48Ub4). Further, the association rate constant (kon) on K48-Ub2 [1] (SPR, target ^K48Ub2) came out at 489000 M⁻¹ s⁻¹; on ^K48Ub4 (SPR, target ^K48Ub4) it was 877000 M⁻¹ s⁻¹. Also, the Kd is 33 ± 8 nM at K48-Ub2 [1] (setting [6]), 30 to 50 nM on K48-Ub2 [1] (setting [7]), 14 nM on ^K48Ub4 (setting [8]) and 10 to 20 nM on ^K48Ub4 (setting [9]). Also, the “binding to K63-linked di-Ub (NMR)” value at ^K63Ub2 is “non-specific and much weaker”. For the same compound, on monomeric Ub, the “binding to monomeric Ub (NMR)” value is given as “much weaker binding”. In the assay with USP2 [2], the “inhibition of USP2” value was about 40%.

For the compound *FQLWOHAIALCG [Ub4_e], in the assay on 26S proteasome, the “inhibition of proteasomal degradation of α-globin-K48-linked tetra-Ub” value (“inhibition … of α-globin-K48-linked tetra-Ub” below) is given as “clear inhibition”. In addition, the “inhibition of K48-linked Ub elongation on Ring1B” value in assay [3] was “inhibit”.

As for `CC(C)C[C@@H]1NC(=O)[C@H](CC(=O)O)NC(=O)[C@H](CC(=O)O)NC(=O)[C@H](Cc2ccccc2)NC(=O)[C@H](Cc2c[nH]c3ccccc23)NC(=O)CNC(=O)[C@@H](Cc2c[nH]c3ccccc23)NC(=O)CSC[C@@H](C(=O)NCC(N)=O)NC(=O)[C@H](Cc2ccc(O)cc2)NC(=O)[C@H](C)NC(=O)[C@H](C(C)C)NC(=O)[C@H](Cc2ccccc2)NC(=O)[C@H](CC(C)C)NC(=O)[C@H](Cc2ccc(O)cc2)NC1=O` [Ub4i], the koff on K48-Ub2 [1] (SPR, target ^K48Ub2) was 0.024 s⁻¹; on ^K48Ub4 (SPR, target ^K48Ub4) it was 0.011 s⁻¹. For the same compound, the association rate constant (kon) on K48-Ub2 [1] (SPR, target ^K48Ub2) was 262000 M⁻¹ s⁻¹; at ^K48Ub4 (SPR, target ^K48Ub4), 407000 M⁻¹ s⁻¹. Moreover, the Kd at K48-Ub2 [1] (setting [6]) is 91 nM; at K48-Ub2 [1] (setting [7]), 85 to 115 nM; on K48-Ub2 [1] (text and figure legend, K48-Ub2, read-out: KD / binding affinity), 90 nM; at ^K48Ub4 (setting [8]), 26 nM; on ^K48Ub4 (setting [9]), 20 to 35 nM. Besides, the “inhibition of USP2” value in the assay on USP2 [4] is recorded as “strong inhibition”; in the assay on USP2 [2], about 40%.

In the case of *GWFDDLYLYVAYC [J08_mClBz_F9Y], on K48-Ub2 [1] (from J08_mClBz), the “fold improvement of binding affinity” value is 17 fold. For the same compound, the relative enrichment ratio on K48-Ub2 [5] was over 5.

In the case of *FQYWOYATGVCG [Ub4_a], the “inhibition … of α-globin-K48-linked tetra-Ub” value with 26S proteasome was “clear inhibition”. In assay [3], the “inhibition of K48-linked Ub elongation on Ring1B” value is on record as “inhibit”.

Consider “linear Ub4ix: uncyclized/linear form of Ub4ix (WLYLDDSGDWWICG; not fully specified (residue 1))”, for which, in the assay on 26S proteasome, the “inhibition … of α-globin-K48-linked tetra-Ub” value is recorded as “no inhibition”.

As for M*GWFDDLYLFVAY-CG [J08_mClBz], the “fold improvement of binding affinity” value on K48-Ub2 [1] (compared with U4i (chloroacetyl-cyclized peptide of same sequence)) is reported as 9 fold.

Values taken from patent US12084523B2, “Ubiquitin high affinity cyclic peptides and methods of use thereof” (TECHNION RESEARCH & DEVELOPMENT FOUNDATION LIMITED, priority 2018, dated 2024).
